Measurements reported in patent US20050203124A1, “Compounds for the sustained reduction of body weight” (Boehringer Ingelheim International GmbH, priority 2004, published 2005).

Test: Clinical studies: monitoring of body weight (vital sign) under multiple ascending doses
Assay type: in vivo, patients
Description: Clinical Studies have been carried out in order to compare the maintenance doses of the compounds of formula IA, including its metabolite IB, that were used in 3 studies.
The studies were randomized, double-blind, placebo-controlled per ascending dose group. The studies were designed to assess the safety, tolerability, phamacokinetics (PK), and preliminary efficacy of multiple ascending doses of the compound of formula IA in patients with possible Alzheimer's Disease (AD).
Two studies were performed consecutively with 0.125/0.25 and 0.5/1.0 mg of the compound of formula IA daily every morning to assess the safety and preliminary efficacy of multiple given for 28 days in those patients. After the completion of the first two studies a […] was initiated in elderly volunteers in order to investigate the safety and PK of a median dose of 0.75 mg of the compound of formula IA daily in the morning than were used in the first two studies. Depending on the maintenance dose an at least double loading dose was administrated for up to 6 days.
To determine the safety, tolerability of ascending multiple doses of the compound of formula IA (5 dose levels) given for 28 days, and to determine the preliminary multiple dose (4-week) pharmacokinetics (PK) of the compound of formula IA. […]

CCOC[C@H]1C2CCC(C[C@@H]1c1ccc(Cl)c(Cl)c1)N2C (some centres unmarked) [Compound of formula IA]
body weight under treatment (change in weight, FIGS. 3 and 4) (patients with possible Alzheimer's Disease / elderly volunteers, aged 55 to 80, 0.125 to 1.0 mg daily for 28 days, placebo-controlled): clearly reduces the bodyweight
body weight after the treatment has been stopped (change in weight, FIGS. 5 and 6) (same studies, follow-up 56 to 70 days after beginning of the 28-day treatment): still further reduced
